Experimental findings from patent US20070093520A1, “Method of treatment of diarrhea-predominant irritable bowel syndrome in a subject” (priority 2005, published 2007) are described below.

Molecules are shown by their SMILES.

For data set [1] the following is noted: in vivo.
Protocol: One subject took fluvoxamine while taking cilansetron 2 mg TID.
In data set [2] the test system is diarrhea-predominant IBS subjects. Nature of the data set: 3007 Study: IBS-QOL Survey. Format: in vivo, human. An excerpt: Subjects were asked to complete the IBS-QOL Survey at Visits 1, 3, and 6 in order to assess possible changes of their QOL.
Subjects were asked to complete a IBS-QOL Survey at Day 1 (Visit 5 of the core protocol), Month 6 and Month 12 (end of study or early termination) in order to assess possible changes of their QOL. The IBS-QoL survey, a 34 item IBS-specific QoL questionnaire consisting of 8 subscales (i.e., interference with activity; body image; health worry; food avoidance; social reaction; sexual; relationship; and dysphoria) was completed by patients at baseline and at later specified time points (e.g., at week 12 and at week 16 in Study 5050).
For IBS-QOL, Baseline for subjects randomized to the cilansetron treatment group was defined as […] of core Study 3006. For subjects randomized to the placebo group of core Study 3006, Visit 5 of the core Study 3006 was assigned as the Baseline.
Mean changes from Baseline for the IBS-QOL total score and subscale domains were summarized via descriptive statistics at […] and Visit 6 (Month 12) of Study 3007 for subjects randomized to the placebo group in core Study 3006 (or for subjects randomized to the cilansetron treatment group in the core Study 3006, at Visit 5 (Month 3), at Visit 3 (Month 6) and Visit 6 (Month 15) of Study 3007).
For Study 3007, “baseline” was defined as the last post-Baseline visit of Study 3006 (normally Visit 5) for subjects randomized to the placebo group and as Visit 1 of core Study 3006 for subjects randomized to the cilansetron treatment group.
The overall IBS-QOL score and the separate IBS-QOL domain scores (i.e. dysphoria, interference with activity, body image, health worry, food avoidance, social reaction, sexual, and relationship) were summarized by treatment group using descriptive statistics. The calculation of each domain score and the overall score is detailed in the user's manual. For each of the domain scores, as well as for the overall score, the change from Baseline to Endpoint was summarized descriptively. Based on the instruction from the author of the IBS-QOL questionnaire, the missing data of the IBS-QOL questionnaire were handled as follows: • If less than or equal to 20% of the items within a subscore (or total score) were missing for a subject, the subscore (or total score) was the summation of the non-missing scores for that subject; • If more than 20% of the items within a subscore (or total score) were missing, the subscore (or total score) was missing for that subject. Determination of Sample Size

Data set [3] has the same test system. As to the kind of experiment: 3007 Study: laboratory marked abnormalities. Format: in vivo, human. As to conditions: Study 3007. The procedure:
Subjects were encouraged to fast at least six hours prior to laboratory samples being drawn. Laboratory safety tests were performed at Day 1 (Visit 5 of the core protocol), Months 1, 6, and 12 (end of study or at the early termination visit). Blood and urine were analyzed for:
• Prothrombin time (PT) (only before colonoscopy, as per clinical practice) • Hemoglobin • Hematocrit • Red blood cell count (RBC) • White blood cell count (WBC) • Differential blood count • Platelet count Blood Chemistry: • Glucose • Creatinine • Blood urea nitrogen (BUN) • Creatine kinase (CK) • Alkaline phosphatase (AP) • Total bilirubin • Alanine aminotransferase (ALT/SGPT) • Aspartate aminotransferase (AST/SGOT) • Gamma-glutamyltransferase (GGT) • Triglycerides • Cholesterol • Total protein • Uric acid • Sodium • Potassium • Calcium • Quantitative beta human chorionic gonadotrophin (β-HCG) (at every visit) • Thyroid stimulating hormone (visit 1 only) Urine: • Urobilinogen • Blood • Bilirubin • Ketones • Glucose • Protein • Nitrite • Leukocytes • pH • Dipstick pregnancy test (Day 1 only, if necessary) Stool: • Parasite, ova and stool culture (visit 1 only, if necessary) • Occult blood (analysis at each visit)
Laboratory data are presented in conventional units. Only one central laboratory was used for each laboratory parameter, thus no laboratory normalization was carried out.
For Study 3007, “baseline” was defined as Visit 1 of core Study 3006 for subjects randomized to the cilansetron treatment group in Study 3006 and as the last post-Baseline visit of Study 3006 (normally Visit 5) for subjects randomized to the placebo group in Study 3006.
Summary statistics are presented for all hematology and chemistry parameters at each analysis timepoint and at Endpoint, as well as for change from Baseline results at each post-Baseline analysis timepoint and at Endpoint. For laboratory assessments that were gender specific, summaries were presented separately for males and females. A listing of laboratory assessments for hematology, chemistry, and urinalysis parameters is presented. The following categories were used for the urinalysis parameter summaries: • pH: ≦5.0, >5.0 to ≦6.0, >6.0 to ≦7.0, and >7.0 • glucose, total protein, ketones, total bilirubin, nitrite, RBC (erythrocytes), and urobilinogen: negative and other (consisting of ‘trace’, ‘positive’, ‘+’, ‘++’, ‘+++’, or ‘++++’) • WBC (leukocytes): negative, positive
The overall incidence of post-Baseline marked abnormalities for hematology and chemistry parameters is also presented. Where applicable, the incidence of post-Baseline marked abnormalities is presented separately by whether the value was abnormally high or low. Any post-Baseline markedly abnormal laboratory measurement collected after the first dose of cilansetron and within 30 days of the last dose of cilansetron was included. However, assessments which were done more than 30 days after last subject visit and after database lock were not included in the analysis. Subjects were counted at most once for the post-Baseline marked abnormality for each laboratory parameter.

`Cc1nccn1C[C@H]1CCc2c(c3cccc4c3n2CCC4)C1=O` [cilansetron, (R)-(−)-4,5,6,8,9,10-hexahydro-10-[(2-methyl-1H-imidazol-1-yl)methyl]-11H-pyrido-[3,2,1-jk]-carbazol-11-one]: the “increase of cilansetron plasma levels” value in data set [1] is “approximately six to seven”. The “QOL after the start of cilansetron treatment” value in data set [2] (Study 3007, P/C) was “An improvement was observed”. The “improvement of mean IBS-QOL total score from Baseline” value was found to be 20.1 in data set [2] (Study 3007, at Endpoint, C/C) and 8.9 in data set [2] (Study 3007, at Endpoint, P/C). Moreover, the “mean IBS-QOL total score” value was determined as 70.7 in data set [2] (Study 3007, at Endpoint, C/C); 70.9 in data set [2] (Study 3007, at Endpoint, P/C); 70.8 in data set [2] (Study 3007, at Endpoint, overall); 69.5 in data set [2] (at the start of Study 3007 (after 12 weeks of Study 3006), C/C). The “beneficial effect on the QOL observed during Study 3006” value in data set [2] (during Study 3007, C/C) was “maintained”. In data set [3], the “post-Baseline markedly high CK” value is on record as 3%. In addition, in data set [3], the “post-Baseline markedly high eosinophils” value stood at 1%. In data set [3], the “post-Baseline markedly high triglycerides” value stood at 3%. In data set [3], the “post-Baseline markedly high uric acid” value is 1%. Besides, the “post-Baseline markedly high GGT” value was 5% in data set [3] (females), 7% in data set [3] (males) and 6% in data set [3] (overall).
